How the values were obtained:
Type in all cases: in vivo
[1] = system: Spodoptera littoralis; assay: Spodoptera littoralis (Egyptian cotton leaf worm), sprayed cotton leaf discs; conditions: foliar, 72 h, application rate 200 ppm, L1 larvae, 3 days after infestation, read-out: control (mortality, anti-feeding effect, growth inhibition)
In short: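 Five first-instar larvae placed on dried cotton leaf discs (on agar) previously sprayed with aqueous dilutions of 10'000 ppm DMSO stocks. Scored at 3 days against untreated discs for mortality, feeding inhibition and growth inhibition; any category above untreated counts as control.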

[2] = system: Myzus persicae; assay: Myzus persicae (green peach aphid): feeding/contact activity; conditions: 144 h, application rate 200 ppm, aphid population of mixed ages, 6 days after infestation, read-out: mortality
Description: Sunflower leaf discs were placed onto agar in a 24-well microtiter plate and sprayed with aqueous test solutions prepared from 10'000 ppm DMSO stock solutions. After drying, the leaf discs were infested with an aphid population of mixed ages. The samples were assessed for mortality 6 days after infestation.

[3] = system: Thrips tabaci; assay: Thrips tabaci (onion thrips): feeding/contact activity; conditions: 144 h, application rate 200 ppm, Thrips population of mixed ages, 6 days after infestation, read-out: mortality
Description: Sunflower leaf discs were placed on agar in 24-well microtiter plates and sprayed with aqueous test solutions prepared from 10'000 ppm DMSO stock solutions. After drying the leaf discs were infested with a Thrips population of mixed ages. The samples were assessed for mortality 6 days after infestation.

[4] = system: Plutella xylostella; assay: Plutella xylostella (diamond back moth), artificial diet; conditions: 120 h, application rate 200 ppm, L2 larvae, 5 days after infestation, read-out: effect in at least one of the two categories (mortality or growth inhibition)
In short: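 L2 larvae (10-15 per well) fed on compound-treated, dried artificial diet; test solutions diluted in water from 10'000 ppm DMSO stocks. Readout 5 days post-infestation as mortality or growth inhibition versus untreated diet, with at least 80% effect at 200 ppm as threshold.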

[5] = system: Tetranychus urticae; assay: Tetranychus urticae (two-spotted spider mite): feeding/contact activity; conditions: 192 h, application rate 200 ppm, mixed population (mobile stages), 8 days after infestation, read-out: mortality
Description: Bean leaf discs on agar in 24-well microtiter plates were sprayed with aqueous test solutions prepared from 10'000 ppm DMSO stock solutions. After drying the leaf discs were infested with a mite population of mixed ages. The samples were assessed for mortality on mixed population (mobile stages) 8 days after infestation.

[6] = system: Diabrotica balteata; assay: Diabrotica balteata (corn root worm), sprayed maize sprouts; conditions: 96 h, application rate 200 ppm, L2 larvae, 4 days after infestation, read-out: effect in at least one of the two categories (mortality or growth inhibition)
In short: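 Read-out at 4 days post-infestation: mortality and growth inhibition relative to untreated samples. Test solutions (200 ppm, from DMSO stocks) were sprayed onto agar-held maize sprouts, which after drying received 6–10 L2 larvae per well.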

[7] = system: Euschistus heros; assay: Euschistus heros (neotropical brown stink bug), sprayed soybean leaves; conditions: 120 h, application rate 200 ppm, N2 nymphs, 5 days after infestation, read-out: effect in at least one of the two categories (mortality or growth inhibition)
In short: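 Scored 5 days post-infestation versus untreated controls, for both mortality and growth inhibition: N2 nymphs placed on agar-mounted soybean leaves previously sprayed at 200 ppm with aqueous test solutions from DMSO stocks and left to dry.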

Cc1cc(C2=NO[C@@](c3cccc(C(F)(F)F)n3)(C(F)(F)F)C2)ccc1C(=O)N[C@H]1CON(S(C)(=O)=O)C1 [Compound A215]
≥ 80%: mortality at 200 ppm [1] | mortality at 200 ppm [2] | mortality at 200 ppm [3] | percent effect (mortality or growth inhibition) at 200 ppm [4] | mortality at 200 ppm [5] | percent effect (mortality or growth inhibition) at 200 ppm [6] | percent effect (mortality or growth inhibition) at 200 ppm [7]

Cc1cc(C2=NO[C@@](c3cc(Cl)c(F)c(Cl)c3)(C(F)(F)F)C2)ccc1C(=O)N[C@@H]1CON(S(N)(=O)=O)C1 [Compound A208, 4-[(5S)-5-(3,5-dichloro-4-fluorophenyl)-5-(trifluoromethyl)-4H-1,2-oxazol-3-yl]-2-methyl-N-[(4S)-2-sulfamoyl-1,2-oxazolidin-4-yl]benzamide]
≥ 80%: mortality at 200 ppm [1] | mortality at 200 ppm [2] | mortality at 200 ppm [3] | percent effect (mortality or growth inhibition) at 200 ppm [4] | mortality at 200 ppm [5] | percent effect (mortality or growth inhibition) at 200 ppm [6]

Cc1cc(C2=NO[C@@](c3cc(Cl)c(F)c(Cl)c3)(C(F)(F)F)C2)ccc1C(=O)NC1CON(S(=O)(=O)N(C)C(C)(C)C)C1 (stereo partly drawn) [Compound A100, N-[2-[tert-butyl(methyl)sulfamoyl]isoxazolidin-4-yl]-4-[(5S)-5-(3,5-dichloro-4-fluoro-phenyl)-5-(trifluoromethyl)-4H-isoxazol-3-yl]-2-methyl-benzamide]
≥ 80%: mortality at 200 ppm [1] | mortality at 200 ppm [2] | mortality at 200 ppm [3] | percent effect (mortality or growth inhibition) at 200 ppm [4] | mortality at 200 ppm [5] | percent effect (mortality or growth inhibition) at 200 ppm [6] | percent effect (mortality or growth inhibition) at 200 ppm [7]

Cc1cc(C(F)(F)F)cc([C@@]2(C(F)(F)F)CC(c3ccc(C(=O)N[C@@H]4CON(S(C)(=O)=O)C4)c(C)c3)=NO2)c1 [Compound A212]
≥ 80%: mortality at 200 ppm [1] | mortality at 200 ppm [2] | mortality at 200 ppm [3] | percent effect (mortality or growth inhibition) at 200 ppm [4] | mortality at 200 ppm [5] | percent effect (mortality or growth inhibition) at 200 ppm [6] | percent effect (mortality or growth inhibition) at 200 ppm [7]

Cc1cc(C2=NO[C@@](c3cc(Cl)cc(Cl)c3)(C(F)(F)F)C2)ccc1C(=O)N[C@@H]1CON(S(=O)(=O)CF)C1 [Compound A210]
≥ 80%: mortality at 200 ppm [1] | mortality at 200 ppm [2] | mortality at 200 ppm [3] | percent effect (mortality or growth inhibition) at 200 ppm [4] | mortality at 200 ppm [5] | percent effect (mortality or growth inhibition) at 200 ppm [6] | percent effect (mortality or growth inhibition) at 200 ppm [7]

Cc1cc(C2=NO[C@@](c3cc(Cl)cc(C(F)(F)F)c3)(C(F)(F)F)C2)ccc1C(=O)N[C@@H]1CON(S(=O)(=O)CC(F)(F)F)C1 [Compound A214]
≥ 80%: mortality at 200 ppm [1] | mortality at 200 ppm [2] | mortality at 200 ppm [3] | percent effect (mortality or growth inhibition) at 200 ppm [4] | mortality at 200 ppm [5] | percent effect (mortality or growth inhibition) at 200 ppm [6] | percent effect (mortality or growth inhibition) at 200 ppm [7]

Cc1cc(C2=NO[C@@](c3cc(Cl)c(F)c(Cl)c3)(C(F)(F)F)C2)ccc1C(=O)N[C@@H]1CON(S(=O)(=O)C2CC2)C1 [Compound A228, N-[(4S)-2-cyclopropylsulfonyl-1,2-oxazolidin-4-yl]-4-[(5S)-5-(3,5-dichloro-4-fluorophenyl)-5-(trifluoromethyl)-4H-1,2-oxazol-3-yl]-2-methylbenzamide]
≥ 80%: mortality at 200 ppm [1] | mortality at 200 ppm [2] | mortality at 200 ppm [3] | percent effect (mortality or growth inhibition) at 200 ppm [4] | mortality at 200 ppm [5] | percent effect (mortality or growth inhibition) at 200 ppm [6] | percent effect (mortality or growth inhibition) at 200 ppm [7]

Cc1cc(C2=NO[C@](c3cc(Cl)c(F)c(Cl)c3)(C(F)(F)F)C2)ccc1C(=O)N[C@H]1CON(S(=O)(=O)NC(=O)OC(C)(C)C)C1 [Compound A209, tert-butyl N-[[(4R)-4-[[4-[(5R)-5-(3,5-dichloro-4-fluorophenyl)-5-(trifluoromethyl)-4H-1,2-oxazol-3-yl]-2-methylbenzoyl]amino]-1,2-oxazolidin-2-yl]sulfonyl]carbamate]
≥ 80%: mortality at 200 ppm [1] | mortality at 200 ppm [2] | mortality at 200 ppm [3] | percent effect (mortality or growth inhibition) at 200 ppm [4] | mortality at 200 ppm [5] | percent effect (mortality or growth inhibition) at 200 ppm [6] | percent effect (mortality or growth inhibition) at 200 ppm [7]

Cc1cc(C2=NO[C@@](c3cc(Cl)c(Cl)c(Cl)c3)(C(F)(F)F)C2)ccc1C(=O)N[C@H]1CON(S(=O)(=O)C(F)F)C1 [Compound A231, N-[(4R)-2-(difluoromethylsulfonyl)-1,2-oxazolidin-4-yl]-2-methyl-4-[(5S)-5-(3,4,5-trichlorophenyl)-5-(trifluoromethyl)-4H-1,2-oxazol-3-yl]benzamide]
≥ 80%: mortality at 200 ppm [1] | mortality at 200 ppm [2] | mortality at 200 ppm [3] | percent effect (mortality or growth inhibition) at 200 ppm [4] | mortality at 200 ppm [5] | percent effect (mortality or growth inhibition) at 200 ppm [6] | percent effect (mortality or growth inhibition) at 200 ppm [7]

Cc1cc(C2=NO[C@](c3cc(Cl)c(F)c(Cl)c3)(C(F)(F)F)C2)ccc1C(=O)N[C@H]1CON(S(=O)(=O)CF)C1 [Compound A211]
≥ 80%: mortality at 200 ppm [1] | mortality at 200 ppm [2] | mortality at 200 ppm [3] | percent effect (mortality or growth inhibition) at 200 ppm [4] | mortality at 200 ppm [5] | percent effect (mortality or growth inhibition) at 200 ppm [6] | percent effect (mortality or growth inhibition) at 200 ppm [7]

Cc1cc(C2=NO[C@@](c3cc(Cl)c(F)c(Cl)c3)(C(F)(F)F)C2)ccc1C(=O)N[C@H]1CON(S(=O)(=O)CBr)C1 [Compound A189, N-[(4R)-2-(bromomethylsulfonyl)-1,2-oxazolidin-4-yl]-4-[(5S)-5-(3,5-dichloro-4-fluorophenyl)-5-(trifluoromethyl)-4H-1,2-oxazol-3-yl]-2-methylbenzamide]
≥ 80%: mortality at 200 ppm [1] | mortality at 200 ppm [2] | mortality at 200 ppm [3] | percent effect (mortality or growth inhibition) at 200 ppm [4] | mortality at 200 ppm [5] | percent effect (mortality or growth inhibition) at 200 ppm [6] | percent effect (mortality or growth inhibition) at 200 ppm [7]

Cc1cc(C2=NO[C@@](c3cc(Cl)c(Cl)c(Cl)c3)(C(F)(F)F)C2)ccc1C(=O)NC1CON(S(=O)(=O)C2CC2)C1 (stereo partly drawn) [Compound A29, N-(2-cyclopropylsulfonylisoxazolidin-4-yl)-2-methyl-4-[(5S)-5-(3,4,5-trichlorophenyl)-5-(trifluoromethyl)-4H-isoxazol-3-yl]benzamide]
≥ 80%: mortality at 200 ppm [1] | mortality at 200 ppm [2] | mortality at 200 ppm [3] | percent effect (mortality or growth inhibition) at 200 ppm [4] | mortality at 200 ppm [5] | percent effect (mortality or growth inhibition) at 200 ppm [6]

— patent publication US10588317B2, “Isoxazoline-substituted benzamides and analogues as insecticides” (priority 2015, dated 2020)
